Measured values published in US20240317721A1, “PYRAZOLYL DERIVATIVES AS INHIBITORS OF THE KRAS MUTANT PROTEIN” (NOVARTIS AG, priority 2021, published 2024).

These molecules were tested against KRasG12C (M1-K169, biotinylated on the N-terminus) (Homo sapiens (Human), UniProt P01116, G12C) (assay: Covalent competition assay: scintillation proximity assay (SPA) quantifying covalent modification of KRASG12C). Settings: competition with radiolabeled covalent probe (Compound B/Compound A), 2 hours incubation, 10 nM KRasG12C.
Assay type: binding
Summary of the method: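 Scintillation proximity readout after streptavidin bead capture (30 min) of biotinylated KRasG12C(M1-K169):GDP, 10 nM final, which was covalently labelled over 2 h by 25 nM radio-probe plus 475 nM cold probe unless blocked by compound.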

| Compound | IC50 |
| --- | --- |
| C=CC(=O)N1CC2(CC(n3nc(N4CCC(N(C)C5COC5)CC45CCC5)c(-c4c(Cl)c(C)cc5[nH]ncc45)c3C)C2)C1 (single isomer, unassigned) [Example 51a, 1-(6-(4-(5-chloro-6-methyl-1H-indazol-4-yl)-5-methyl-3-(8-(methyl(oxetan-3-yl)amino)-5-azaspiro[3.5]nonan-5-yl)-1H-pyrazol-1-yl)-2-azaspiro[3.3]heptan-2-yl)prop-2-en-1-one] | 10 nM |
| C=CC(=O)N1CC2(CC(n3nc(N4CCC(N(C)C5COC5)CC4(C)C)c(-c4c(Cl)c(Cl)cc5[nH]ncc45)c3C)C2)C1 (single isomer, unassigned) [Example 50a, 1-(6-(4-(5,6-dichloro-1H-indazol-4-yl)-3-(2,2-dimethyl-4-(methyl(oxetan-3-yl)amino)piperidin-1-yl)-5-methyl-1H-pyrazol-1-yl)-2-azaspiro[3.3]heptan-2-yl)prop-2-en-1-one] | 273 nM |
| C=CC(=O)N1CC2(CC(n3nc(N4CCN(C[C@@H]5COCCO5)C[C@@]4(C)C(F)F)c(-c4c(Cl)c(Cl)cc5[nH]ncc45)c3C)C2)C1 (single isomer, unassigned) [Example 105b] | 19 nM |
| C=CC(=O)N1CC2(CC(n3nc(N4CCN(CC(C)(C)O)CC45CCCC5)c(-c4c(Cl)c(C)cc5[nH]ncc45)c3C)C2)C1 (single isomer, unassigned) [Example 165a, 1-(6-(4-(5-chloro-6-methyl-1H-indazol-4-yl)-3-(9-(2-hydroxy-2-methylpropyl)-6,9-diazaspiro[4.5]decan-6-yl)-5-methyl-1H-pyrazol-1-yl)-2-azaspiro[3.3]heptan-2-yl)prop-2-en-1-one] | > 5000 nM |
| C=CC(=O)N1CC2(CC(n3nc(N4CC[C@@H](CN5CCO[C@@H](C(N)=O)C5)CC4(C)C)c(-c4c(Cl)c(Cl)cc5[nH]ncc45)c3C)C2)C1 (single isomer, unassigned) [Example 271b] | 14 nM |
| C=CC(=O)N1CC2(CC(n3nc(N4CCN(CCO)CC45CCC5)c(-c4c(Cl)c(C)cc5[nH]ncc45)c3C)C2)C1 (single isomer, unassigned) [Example 162a, 1-(6-(4-(5-chloro-6-methyl-1H-indazol-4-yl)-3-(8-(2-hydroxyethyl)-5,8-diazaspiro[3.5]nonan-5-yl)-5-methyl-1H-pyrazol-1-yl)-2-azaspiro[3.3]heptan-2-yl)prop-2-en-1-one] | > 5000 nM |
| C=CC(=O)N1CC2(CC(n3nc(N4[C@H](C)CN(C(C)=O)C[C@@H]4C)c(-c4c(Cl)c(C)cc5[nH]ncc45)c3C)C2)C1 (single isomer, unassigned) [Example 13a] | > 50000 nM |
| C=CC(=O)N1CC2(CC(n3nc(N4CCN(C(C)=O)CC4(C)C)c(-c4c(C)c(C)cc5[nH]ncc45)c3C)C2)C1 (single isomer, unassigned) [Example 1b, 1-(6-(3-(4-Acetyl-2,2-dimethylpiperazin-1-yl)-4-(5,6-dimethyl-1H-indazol-4-yl)-5-methyl-1H-pyrazol-1-yl)-2-azaspiro[3.3]heptan-2-yl)prop-2-en-1-one] | 10700 nM |
| C=CC(=O)N1CC2(CC(n3nc(N4CCN(CCOC)CC45CCC5)c(-c4c(Cl)c(C)cc5[nH]ncc45)c3C)C2)C1 (single isomer, unassigned) [Example 71b, 1-(6-(4-(5-chloro-6-methyl-1H-indazol-4-yl)-3-(8-(2-methoxyethyl)-5,8-diazaspiro[3.5]nonan-5-yl)-5-methyl-1H-pyrazol-1-yl)-2-azaspiro[3.3]heptan-2-yl)prop-2-en-1-one] | 25 nM |
| C=CC(=O)N1CC2(CC(n3nc(N4CCC(CN5C[C@@H]6OCCO[C@@H]6C5)CC4(C)C)c(-c4c(Cl)c(Cl)cc5[nH]ncc45)c3C)C2)C1 (single isomer, unassigned) [Example 231a] | > 5000 nM |
| C=CC(=O)N1CC2(CC(n3nc(N4CC[C@@H](CN5CC6(CCCN6C6COC6)C5)CC4(C)C)c(-c4c(Cl)c(Cl)cc5[nH]ncc45)c3C)C2)C1 (single isomer, unassigned) [Example 272b] | 8 nM |
| C=CC(=O)N1CC2(CC(n3nc(N4CCN(C(C)=O)C[C@@H]4C(C)C)c(-c4c(Cl)c(C)cc5[nH]ncc45)c3C)C2)C1 (single isomer, unassigned) [Example 95b] | 373 nM |
| C=CC(=O)N1CC2(CC(n3nc(N4CCN(C(C)=O)CC4(C)C)c(-c4c(C)c(C)cc5[nH]ncc45)c3C)C2)C1 (single isomer, unassigned) [Example 1a, 1-(6-(3-(4-Acetyl-2,2-dimethylpiperazin-1-yl)-4-(5,6-dimethyl-1H-indazol-4-yl)-5-methyl-1H-pyrazol-1-yl)-2-azaspiro[3.3]heptan-2-yl)prop-2-en-1-one] | 86 nM |
| C=CC(=O)N1CC2(CC(n3nc(N4CC[C@@H](CN5C[C@@H]6C[C@H]5CS6(=O)=O)CC4(C)C)c(-c4c(Cl)c(Cl)cc5[nH]ncc45)c3C)C2)C1 (single isomer, unassigned) [Example 249b] | 13 nM |
| C=CC(=O)N1CC2(CC(n3nc(N4CCC(n5ccnc5)CC4(C)C)c(-c4c(Cl)c(C)cc5[nH]ncc45)c3C)C2)C1 (single isomer, unassigned) [Example 45b, 1-(6-(3-(4-(1H-imidazol-1-yl)-2,2-dimethylpiperidin-1-yl)-4-(5-chloro-6-methyl-1H-indazol-4-yl)-5-methyl-1H-pyrazol-1-yl)-2-azaspiro[3.3]heptan-2-yl)prop-2-en-1-one] | 1500 nM |
| C=CC(=O)N1CC2(CC(n3nc(N4CCC(N5C6CCC5COC6)CC4(C)C)c(-c4c(Cl)c(C)cc5[nH]ncc45)c3C)C2)C1 (single isomer, unassigned) [Example 75b] | 228 nM |
| C=CC(=O)N1CC2(CC(n3nc(N4CC[C@@H](CN5C6CCC5CN(C(C)=O)C6)CC4(C)C)c(-c4c(Cl)c(Cl)cc5[nH]ncc45)c3C)C2)C1 (single isomer, unassigned) [Example 318a] | 4000 nM |
| C=CC(=O)N1CC2(CC(n3nc(N4CC[C@@H](CN5C[C@H](O)C[C@@H](F)C5)CC4(C)C)c(-c4c(Cl)c(Cl)cc5[nH]ncc45)c3C)C2)C1 (single isomer, unassigned) [Example 300b, 1-(6-(4-(5,6-dichloro-1H-indazol-4-yl)-3-((R)-4-(((3R*,5R*)-3-fluoro-5-hydroxypiperidin-1-yl)methyl)-2,2-dimethylpiperidin-1-yl)-5-methyl-1H-pyrazol-1-yl)-2-azaspiro[3.3]heptan-2-yl)prop-2-en-1-one] | 13 nM |
| C=CC(=O)N1CC2(CC(n3cc(-c4c(Cl)c(C)cc5[nH]ncc45)c(N4CC[C@@H](CN5CCOCC5)CC4(C)C)n3)C2)C1 [Example 223, (R)-1-(6-(4-(5-chloro-6-methyl-1H-indazol-4-yl)-3-(2,2-dimethyl-4-(morpholinomethyl)piperidin-1-yl)-1H-pyrazol-1-yl)-2-azaspiro[3.3]heptan-2-yl)prop-2-en-1-one] | 600 nM |
| C=CC(=O)N1CC2(CC(n3nc(N4CCN(C5COC5)CC45CCC5)c(-c4c(Cl)c(C)cc5[nH]nc(N)c45)c3C)C2)C1 (single isomer, unassigned) [Example 114a, 1-(6-(4-(3-amino-5-chloro-6-methyl-1H-indazol-4-yl)-5-methyl-3-(8-(oxetan-3-yl)-5,8-diazaspiro[3.5]nonan-5-yl)-1H-pyrazol-1-yl)-2-azaspiro[3.3]heptan-2-yl)prop-2-en-1-one] | 7 nM |
| C=CC(=O)N1CC2(CC(n3nc(N4CCN(C5COC5)CC45CCC5)c(-c4c(C)c(Cl)cc5[nH]ncc45)c3C)C2)C1 (single isomer, unassigned) [Example 79b, 1-(6-(4-(6-chloro-5-methyl-1H-indazol-4-yl)-5-methyl-3-(8-(oxetan-3-yl)-5,8-diazaspiro[3.5]nonan-5-yl)-1H-pyrazol-1-yl)-2-azaspiro[3.3]heptan-2-yl)prop-2-en-1-one] | 18 nM |
| C=CC(=O)N1CC2(CC(n3nc(N4CCN(C5CCOCC5)C[C@@]4(C)C(F)F)c(-c4c(Cl)c(C)cc5[nH]ncc45)c3C)C2)C1 (single isomer, unassigned) [Example 146b] | 31 nM |
| C=CC(=O)N1CC2(CC(n3nc(N4CC[C@@H](CN5CC6(CCN(C7COC7)C6)C5)CC4(C)C)c(-c4c(Cl)c(Cl)cc5[nH]ncc45)c3C)C2)C1 (single isomer, unassigned) [Example 267b] | 7 nM |
| C=CC(=O)N1CC2(CC(n3nc(N4CCN(C5COC5)C[C@]4(C)COC)c(-c4c(Cl)c(C)cc5[nH]ncc45)c3C)C2)C1 (single isomer, unassigned) [Example 147b] | 923 nM |
| C=CC(=O)N1CC2(CC(n3nc(N4CCC(CN5CC6COCC6C5)CC4(C)C)c(-c4c(Cl)c(Cl)cc5[nH]ncc45)c3C)C2)C1 (single isomer, unassigned) [Example 226b, 1-(6-(4-(5,6-dichloro-1H-indazol-4-yl)-3-(2,2-dimethyl-4-((tetrahydro-1H-furo[3,4-c]pyrrol-5(3H)-yl)methyl)piperidin-1-yl)-5-methyl-1H-pyrazol-1-yl)-2-azaspiro[3.3]heptan-2-yl)prop-2-en-1-one] | 1100 nM |
| C=CC(=O)N1CC2(CC(n3nc(N4CCN(C[C@@H]5COCCO5)CC4(C)C)c(-c4c(Cl)c(Cl)cc5[nH]ncc45)c3C)C2)C1 (single isomer, unassigned) [Example 172a] | 3900 nM |
| C=CC(=O)N1CC2(CC(n3nc(N4CCN(C[C@@H]5COCCO5)C[C@]4(C)CCOC)c(-c4c(Cl)c(C)cc5[nH]ncc45)c3C)C2)C1 (single isomer, unassigned) [Example 85a] | 5000 nM |
| C=C(F)C(=O)N1CC2(CC(n3nc(N4CCN(C[C@@H]5COCCO5)C[C@]4(C)COC)c(-c4c(Cl)c(Cl)cc5[nH]ncc45)c3C)C2)C1 (single isomer, unassigned) [Example 184a] | > 5000 nM |
